Reference: ChEMBL document CHEMBL1201862, “PubChem BioAssay data set” (2004)
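Compound exposure: 48 hours, 5 concentrations, 96-well plates. GI50 marks 50% less growth.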 Calls of active or inactive are those of the source. Cut-off read from the data, not from the text of the source: active = GI50 up to about 1.1 µM and inactive = higher.

Key:
Assay in all cases: NCI-60 cell line screen, 48 h
[1] = test system: Hs-578T
[2] = test system: T47D
[3] = test system: KM-20L2
[4] = test system: LXFL 529
[5] = test system: SNB-78
[6] = test system: M19-MEL
[7] = test system: XF498

Structure (SMILES) | GI50 [1] | GI50 [2] | also measured
Sc1nnc(SCc2ccccc2Cl)c2nc[nH]c12 | > 100 µM (inactive) | > 100 µM (inactive) | –
O=C(Nc1ccc2cc3ccccc3cc2c1)c1cc2c(cc1Cl)Sc1nccn1S2(=O)=O | > 100 µM (inactive) | 25.2 µM (inactive) | –
CCNC(=O)c1c(O)nc2ccccc2c1O | 40.5 µM (inactive) | – | –
O=C(/C=C/c1ccccc1)CSc1nc2ccc(I)cc2c(=O)n1Cc1ccccc1 | 25.3 µM (inactive) | 9.16 µM (inactive) | –
COC(=O)CC(CC(=O)C(=O)OC)C(=O)OC (centres undefined) | – | – | GI50 [3]: > 100 µM (inactive); GI50 [4]: > 100 µM (inactive); GI50 [5]: > 100 µM (inactive)
Cc1ccc([C@@H]2[C@@H](C(=O)c3ccccn3)[C@H](c3ccc(C)cc3)C[C@](O)(c3ccccn3)[C@H]2C(=O)c2ccccn2)cc1 | 26.5 µM (inactive) | 7.73 µM (inactive) | –
COc1ccc(C(O)/C(=N/N)c2nc3ccc(Cl)cc3nc2O)cc1 (centres undefined) | > 100 µM (inactive) | 99.8 µM (inactive) | –
Cc1cccc(/C=N\NC(=S)N2CCCCC2)n1 | 26.5 µM (inactive) | < 0.01 µM (active) | –
CCCn1c(=O)c(N2CCN(c3ccccc3)CC2)nc2sc3ccccc3c21 | > 100 µM (inactive) | > 100 µM (inactive) | –
O=C(/C=C/c1ccc(OCc2cccc(Cl)c2)cc1)NO | 35 µM (inactive) | 7.52 µM (inactive) | –
COc1ccc(N[C@H]([C@@H](c2ccccc2)[S+]([O-])c2ccc(C)cc2)C(F)(F)F)cc1 (some centres undefined) | – | > 100 µM (inactive) | –
O=c1cc(-c2ccncc2)[nH]c2cc3c(cc12)OCO3 | > 100 µM (inactive) | > 100 µM (inactive) | –
Nc1ccc(-c2nnc(-c3c(Cl)c(Cl)c(Cl)c(Cl)c3-c3nc4cc(C(=O)c5ccccc5)ccc4[nH]3)o2)cc1 | 28 µM (inactive) | 18.3 µM (inactive) | –
COc1ccccc1Cc1ccc(C2C=CC3(CC(=O)C=C3C)C(=O)C2)o1 (centres undefined) | 20.2 µM (inactive) | – | –
Cc1ccc(C(=O)O)c(/C=C2\Cc3cc(C)cc(C)c3C2=O)c1 | 93.8 µM (inactive) | 46.6 µM (inactive) | –
Nc1ccc2ncc(Nc3ccc(Cl)c(Cl)c3)nc2c1 | – | – | GI50 [6]: 21.7 µM (inactive); GI50 [3]: 31.8 µM (inactive); GI50 [4]: 29.6 µM (inactive); GI50 [5]: 26.9 µM (inactive); GI50 [7]: 32.2 µM (inactive)
COc1cc(C=O)cc(/C=N/c2ccccn2)c1O | 4.63 µM (inactive) | 53.3 µM (inactive) | –
O=[N+]([O-])c1cc(C(F)(F)F)ccc1S(=O)(=O)N[C@@H]1CCCC[C@H]1NS(=O)(=O)c1ccc(C(F)(F)F)cc1[N+](=O)[O-] | 2.48 µM (inactive) | 3.13 µM (inactive) | –
CCOC(=O)/C=C(\C(=O)OCC)n1ccc(N)nc1=O | > 100 µM (inactive) | > 100 µM (inactive) | –
N#CCCN(CCCN(CCCN(C(=O)Nc1ccccc1)c1ccccc1)C(=O)Nc1ccccc1)C(=O)Nc1ccccc1 | 73.5 µM (inactive) | > 8.75 µM (inactive) | –
c1ccc(-c2sc(-c3ccccc3)c3c2C(c2ccccc2)c2c(-c4ccccc4)sc(-c4ccccc4)c2C3c2ccccc2)cc1 (centres undefined) | – | – | GI50 [6]: > 100 µM (inactive); GI50 [3]: > 100 µM (inactive); GI50 [4]: > 100 µM (inactive); GI50 [5]: > 100 µM (inactive)
CCCCCCCC(=O)N1C2CC3CCC2(CS1(=O)=O)C3(C)C (centres undefined) | 15.6 µM (inactive) | – | –
CC(=O)c1cc(CC2Cc3cc4c(cc3C2=O)CCC4)cc2c1CCC2 (centres undefined) | 35.5 µM (inactive) | 15.1 µM (inactive) | –
CCOC(=O)c1nc2cc(C(F)(F)F)ccc2nc1Nc1ccc(Cl)c(Cl)c1 | > 100 µM (inactive) | > 100 µM (inactive) | –
Nc1nc2c(=O)c3ccccc3sc2s1 | 43.7 µM (inactive) | 69 µM (inactive) | –
COC12COC(=O)C1C(c1ccc3c(c1)OCO3)c1cc3c(cc1O2)OCO3 (centres undefined) | 19.5 µM (inactive) | 24.2 µM (inactive) | –

Structure (SMILES) | GI50 [1] | GI50 [2] | also measured
COC(=O)[C@H](Cc1ccccc1)NC(=O)N1CCCN(C(=O)N[C@@H](Cc2ccccc2)C(=O)OC)CCCN(C(=O)N[C@@H](Cc2ccccc2)C(=O)OC)CCC1 | 20.7 µM (inactive) | 17.3 µM (inactive) | –
CCOC(=O)c1ccc(C(=O)/C(C(C)=O)=C2\CCCN2C)n1C | > 100 µM (inactive) | 15.8 µM (inactive) | –
COc1ccc(NC(=O)N(C)CC2(O)CCC(C(C)(C)C)CC2)cc1 (centres undefined) | 33.9 µM (inactive) | – | –
Cc1ccc(/C=C/c2n[nH]c(N/N=C/c3ccc4c(c3)OCO4)nc2=O)cc1 | 13.6 µM (inactive) | 36.6 µM (inactive) | –
COc1ccc(C2C(C#N)=C(S)N(C3OC(CO)C(O)C(O)C3O)C(c3ccccc3)=C2C(C)=O)cc1 (centres undefined) | 45.3 µM (inactive) | 6.18 µM (inactive) | –
c1ccc(CCCC2Sc3cccc4cccc(c34)S2)cc1 | – | – | GI50 [6]: 79.1 µM (inactive); GI50 [3]: 54.7 µM (inactive); GI50 [4]: > 100 µM (inactive); GI50 [5]: > 100 µM (inactive); GI50 [7]: > 100 µM (inactive)
Cc1nn(-c2ccccc2)c(C)c1/C=N/N=C1\S/C(=C\c2ccc(Cl)cc2)C(=O)N1c1ccccc1 | 5.65 µM (inactive) | > 100 µM (inactive) | –
Cn1c(-c2ccc[se]2)ccc1-c1ccc(CO)[se]1 | 33 µM (inactive) | 0.0405 µM (active) | –
O=c1c2cc(Br)cc(Br)c2[nH]c(=S)n1-c1ccc(/N=N/c2ccc(O)c3cccnc23)cc1 | > 100 µM (inactive) | 38.2 µM (inactive) | –
CC1C(C)(C)C23CC12C1(OCCO1)C3Br (centres undefined) | > 100 µM (inactive) | – | –
O=NN1CCN=C1c1ccc([N+](=O)[O-])cc1 | – | – | GI50 [6]: > 100 µM (inactive); GI50 [3]: > 100 µM (inactive); GI50 [4]: > 100 µM (inactive); GI50 [5]: > 100 µM (inactive); GI50 [7]: > 100 µM (inactive)
C/C(=N\Nc1nc2ccccc2[nH]1)c1cccc[n+]1[O-] | > 100 µM (inactive) | > 100 µM (inactive) | –
CC(C)(C)[Si](C)(C)OCC1OC(n2cnc3c(NC(=O)c4ccccc4)ncnc32)CC1O (centres undefined) | 19.2 µM (inactive) | 30.2 µM (inactive) | –
CNC(=O)c1ccc(C(=O)NCCCCCN(O)C(=O)CCC(=O)NCCCCCN(O)C(=O)CCC(=O)NCCCCCN(O)C(C)=O)c(O)c1O | > 100 µM (inactive) | – | –
Cc1ccc([N+](=O)[O-])cc1S(=O)(=O)Nc1ccc(C2=NN(S(=O)(=O)c3cc([N+](=O)[O-])ccc3C)C(c3cccs3)C2)cc1 (centres undefined) | 12.8 µM (inactive) | 21.5 µM (inactive) | –
FC(F)(Sc1ccccc1)c1nc2ccccc2o1 | – | > 100 µM (inactive) | –
O=C1C2=Cc3ccccc3OC2(O)Oc2cc(O)cc(O)c21 (centres undefined) | – | > 100 µM (inactive) | –
COc1ccc(/N=N/c2c(C)c(C#N)c(=S)n(C3OC(CO)C(O)C(O)C3O)c2C)cc1 (centres undefined) | 41.4 µM (inactive) | 28.6 µM (inactive) | –
COc1c2cc([N+](=O)[O-])cc1CN(C(=O)C(F)(F)F)CCOCCN(C(=O)C(F)(F)F)C2 | > 100 µM (inactive) | > 100 µM (inactive) | –
COc1ccccc1C1(c2c(OC)c(=O)c2=O)SCCCS1 | 35 µM (inactive) | 73.8 µM (inactive) | –
COC(=O)C/N=C1\NC(=S)N(Cc2ccc(OC)cc2)C12CCCC2 | – | > 100 µM (inactive) | –
CSC1=N/C(=C\c2ccco2)C(=O)N1CN1CCCCC1 | > 100 µM (inactive) | – | –
CCOC(OCC)N1C(=O)C2(C(OCC)OCC)CC3C(OC(=O)N3N)c3cccc1c32 (centres undefined) | – | > 100 µM (inactive) | –
CC12OC(=O)[C@@]3(O)CCC4C(C[C@H]5O[C@]56CC=CC(=O)[C@]46C)C45OC[C@H]6C(=O)O[C@@H]1C[C@@]6(C)[C@H](C4=O)C23O5 (some centres undefined) | 5.47 µM (inactive) | 1.36 µM (inactive) | –
O=C(/C=C/C=C/c1ccccc1)CCc1ccccc1 | 75.9 µM (inactive) | 53.3 µM (inactive) | –
N=C(N)N/N=C/c1c(Cl)nc2sccn12 | 18.2 µM (inactive) | 26.5 µM (inactive) | –
